Values of other authors as cited in patent publication US20090253799A1 (priority 2008, published 2009).

Target: T1, wildtype CFTR (Homo sapiens, UniProt P13569)
T1 construct: expressed in transfected cells
Settings: Muanprasat et al. 2004

T1 sequence (P13569 whole entry): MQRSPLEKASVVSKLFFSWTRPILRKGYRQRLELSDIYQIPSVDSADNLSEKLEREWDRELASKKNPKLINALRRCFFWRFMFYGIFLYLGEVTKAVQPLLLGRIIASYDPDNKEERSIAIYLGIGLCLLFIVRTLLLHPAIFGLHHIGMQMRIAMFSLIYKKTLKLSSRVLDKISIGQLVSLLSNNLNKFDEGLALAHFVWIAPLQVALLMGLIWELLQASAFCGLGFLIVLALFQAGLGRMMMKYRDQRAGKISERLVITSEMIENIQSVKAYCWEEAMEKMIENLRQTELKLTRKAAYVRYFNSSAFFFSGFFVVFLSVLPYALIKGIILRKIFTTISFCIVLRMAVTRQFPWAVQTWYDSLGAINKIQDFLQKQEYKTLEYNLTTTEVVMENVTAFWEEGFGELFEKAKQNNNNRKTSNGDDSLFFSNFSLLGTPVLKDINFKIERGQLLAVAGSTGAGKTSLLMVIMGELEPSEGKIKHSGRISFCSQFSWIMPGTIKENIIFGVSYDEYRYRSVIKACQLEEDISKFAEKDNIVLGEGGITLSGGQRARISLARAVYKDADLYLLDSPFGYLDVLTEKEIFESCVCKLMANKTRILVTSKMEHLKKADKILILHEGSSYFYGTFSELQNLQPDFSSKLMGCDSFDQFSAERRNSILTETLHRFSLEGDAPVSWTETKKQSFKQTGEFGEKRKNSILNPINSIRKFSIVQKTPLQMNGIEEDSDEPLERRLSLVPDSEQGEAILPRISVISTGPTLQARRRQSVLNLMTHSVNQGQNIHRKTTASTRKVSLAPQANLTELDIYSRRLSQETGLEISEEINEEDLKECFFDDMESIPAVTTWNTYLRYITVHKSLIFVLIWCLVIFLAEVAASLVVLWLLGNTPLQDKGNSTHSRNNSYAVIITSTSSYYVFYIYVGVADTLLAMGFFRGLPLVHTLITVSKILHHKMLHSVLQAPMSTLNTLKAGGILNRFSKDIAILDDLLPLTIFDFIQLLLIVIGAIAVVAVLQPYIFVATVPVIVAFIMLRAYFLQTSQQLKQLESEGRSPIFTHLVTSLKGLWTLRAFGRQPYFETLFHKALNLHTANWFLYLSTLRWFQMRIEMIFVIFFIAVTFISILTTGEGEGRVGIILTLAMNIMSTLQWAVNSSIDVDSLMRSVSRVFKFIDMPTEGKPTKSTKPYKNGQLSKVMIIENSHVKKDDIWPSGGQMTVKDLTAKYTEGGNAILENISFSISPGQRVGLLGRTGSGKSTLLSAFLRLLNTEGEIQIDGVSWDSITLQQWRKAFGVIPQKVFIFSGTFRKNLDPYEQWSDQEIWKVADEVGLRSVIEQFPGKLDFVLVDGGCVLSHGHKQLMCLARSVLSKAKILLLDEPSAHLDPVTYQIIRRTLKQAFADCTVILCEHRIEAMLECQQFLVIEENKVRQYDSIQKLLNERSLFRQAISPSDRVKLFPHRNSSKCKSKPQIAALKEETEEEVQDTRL

**Q.** For O=C(CNc1ccc2ccccc2c1)N/N=C/c1cc(Br)c(O)c(Br)c1O [GlyH-101], which “time constants for block and unblock” value is on record?
**A.** 8 to 10 ms
